The text below walks through data of paper PMC4768138, “Biliverdin targets enolase and eukaryotic initiation factor 2 (eIF2α) to reduce the growth of intraerythrocytic development of the malaria parasite Plasmodium falciparum” (Scientific Reports, 2016).

Series [1] addresses T1, P. falciparum enolase (Pf enolase) (Plasmodium falciparum, UniProt Q8IJN7).
T1 construct: gene ENO; recombinant full-length Plasmodium enolase, expressed in E. coli, His-tag-thioredoxin removed by TEV protease
Kind of series: ITC with purified enzyme (n = […], ΔG −[…] Kcal/mol, Kd not given); IC50 from enzyme inhibition assay. In kind it is biochemical.

Series [2] concerns the molecule itself. Put plainly: SEC; Superdex 200 16/60, 20 mM Tris-HCl pH 8.0, 200 mM NaCl; single symmetric peak of the purified recombinant protein. In general terms: Size exclusion chromatography separates by hydrodynamic size, large species first.

Broadly, the IC50 is the concentration needed to halve the response being measured. A higher IC50 goes with a need for much substance. Molecule `C=CC1=C(C)/C(=C/C2=NC(=C\c3[nH]c(/C=C4\NC(=O)C(C)=C4C=C)c(C)c3CCC(=O)O)/C(CCC(=O)O)=C2C)NC1=O` [BV, biliverdin] yielded an IC50 in series [1] of 27 ± 4 µM.

B1: Plasmodium falciparum enolase (enzyme, UniProt Q8IJN7 1-446, looked up)
chain: MAHVITRINAREILDSRGNPTVEVDLETNLGIFRAAVPSGASTGIYEALELRDNDKSRYLGKGVQKAIKNINEIIAPKLIGMNCTEQKKIDNLMVEELDGSKNEWGWSKSKLGANAILAISMAVCRAGAAANKVSLYKYLAQLAGKKSDQMVLPVPCLNVINGGSHAGNKLSFQEFMIVPVGAPSFKEALRYGAEVYHTLKSEIKKKYGIDATNVGDEGGFAPNILNANEALDLLVTAIKSAGYEGKVKIAMDVAASEFYNSENKTYDLDFKTPNNDKSLVKTGAQLVDLYIDLVKKYPIVSIEDPFDQDDWENYAKLTAAIGKDVQIVGDDLLVTNPTRITKALEKNACNALLLKVNQIGSITEAIEACLLSQKNNWGVMVSHRSGETEDVFIADLVVALRTGQIKTGAPCRSERNAKYNQLLRIEESLGNNAVFAGEKFRLQLN
notes: Enolase of Plasmodium falciparum, expressed from the P. falciparum enolase-pETTrx-1a plasmid; the abstract calls it recombinant full-length Plasmodium enolase; The His-tag-thioredoxin was removed by TEV protease; also called Pf enolase; P. falciparum enolase; source: E. coli Rosetta (DE3), purified (HisTrap, TEV digestion, second HisTrap, Superdex 200)
Usually stoichiometry N stands for the number of molecules, sites or subunits per partner or assembly. As to B1, the “stoichiometry N” value in series [2] was 2.
